Measured values published in PubChem BioAssay (NCI).
Several values for one entry are separate records, joined by “and”; a condition that tells them apart may be missing. Equal values may be shown once.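 96-well plates; 48 h exposure; 5 concentrations. Endpoints by linear interpolation between flanking doses. Not reached: highest tested concentration assigned. GI50 = concentration required for 50% inhibition of growth. TGI denotes the concentration required for complete inhibition of growth.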

What was measured:
Test in all cases: NCI anticancer screen, dose series, 48 h
[1] = tested on: HCT-116 colon
[2] = tested on: UO-31 renal
[3] = tested on: IGROV1 ovarian
[4] = tested on: RXF 393 renal
[5] = tested on: HCT-15 colon
[6] = tested on: HOP-92 NSCLC
[7] = tested on: SR leukemia
[8] = tested on: SN12C renal
[9] = tested on: OVCAR-4 ovarian
[10] = tested on: HL-60(TB) leukemia

SMILES	GI50 [1] [µM]	TGI [1] [µM]	GI50 [2]	TGI [2] [µM]	GI50 [3] [µM]	TGI [3] [µM]	GI50 [4]	TGI [4] [µM]	GI50 [5]	TGI [5] [µM]	GI50 [6] [µM]	TGI [6] [µM]	GI50 [7] [µM]	TGI [7] [µM]	GI50 [8] [µM]	TGI [8] [µM]	GI50 [9]	TGI [9] [µM]	TGI [10] [µM]	GI50 [10] [µM]
Cc1cc(C)c(NC(=O)c2sc3nc4c(cc3c2N)CN(Cc2ccccc2)CC4)c(C)c1	2.89	16	4.78 µM	93.9	6.54	> 100	2.45 µM	18.5	2.12 µM	> 100	0.877	42.6	1.83	10.7	5.6	> 100	6.72 µM	> 100		
CNS(=O)(=O)NNS(=O)(=O)c1ccc(Br)cc1		> 100		> 100		> 100		> 100		> 100		> 100						> 100	> 100	
CN(CCO)c1ccc(N2Cc3ccccc3OC3=C2C(=O)c2c(O)ccc(O)c2C3=O)cn1	0.0467	0.223	0.0971 µM	0.304	0.203	0.636	0.0954 µM	0.27	0.127 µM	0.484	0.223	0.505			0.165	0.355	0.173 µM	0.343	0.406	0.114
O=S(=O)(c1ccccc1)C1CN2OC1(S(=O)(=O)c1ccccc1)CC2c1ccc(Br)cc1 (stereo not given)		> 100		> 100		> 100		46.5		> 100		> 100				> 100		> 100	> 100	
CCCN1CN(C(C(=O)N[C@@H]2C(=O)N3C2SC(C)(C)C3C(=O)O)c2ccc(O)cc2)CSC1=S (stereo not given in full)		> 100		> 100		> 100				> 100		> 100				> 100		> 100	> 100	
Cc1cc(C)nc(NS(=O)(=O)c2ccc(NC(=O)c3cccc4c(Nc5ccc(S(N)(=O)=O)cc5)c5ccccc5nc34)cc2)n1		21.7		> 100		28.4		> 81.8		> 100		61.1				> 82.6		> 85.5	29.6	
COc1c[c]([Hg][O]C(C)=O)c(OC)c(NC(=O)CC(C)=O)[c]1[Hg][O]C(C)=O	13.1	34.8	19.2 µM	33.3	11	23.9	2.86 µM	7.3	3.11 µM				2.59	> 100	13.7	27.8	15.9 µM	30	5.35	2.41
Cc1ccc(S(=O)(=O)c2ccc(N)cc2)cc1		> 100		> 100		> 100		> 100		> 100								> 100	> 100	
CC(C)C(=O)NS(=O)(=O)c1ccccc1		> 100		> 100		> 100		> 100				> 100		> 100		> 100		> 100	> 100	
NCCSc1nc(-c2ccccc2)c(-c2ccccc2)o1		> 100		> 100		> 100		> 100		> 100		> 100		> 100		> 100		> 100		
CN1C(=O)/C(=C/c2c(Cl)n(C)c3ccccc23)c2ccccc21		1.39	8 µM and 1.24 µM	2.75	4.34		7.89 µM and 1.56 µM	3.84	2.69 µM and 1.89 µM	3.56	1.8	3.34			1.82	9.33	8.99 µM and 1.82 µM	3.45	10.2	0.44
O=Cc1ccc2c(c1-c1c(C=O)ccc3c1OCO3)OCO2		> 100		> 100		> 100				> 100				> 100		> 100		> 100	> 100	
COc1cc2c3c(n(CCCOC(=O)C(F)(F)F)c(=O)c2cc1OC)-c1cc2c(cc1C3=O)OCO2	< 0.0158		< 0.01 µM	> 100	0.555	> 100	0.593 µM	> 67.8	0.103 µM	> 100	0.122	33.4			< 0.01	0.0272	0.208 µM	> 100		
CC(C)N(C(=O)C12C3C4C1(I)C1C2C3(I)C41C(=O)N(C(C)C)C(C)C)C(C)C (stereo not given)		> 100		> 100		> 100		> 100		> 59.8		> 100				> 100		> 100	> 61.3	
Cc1cc(NS(=O)(=O)c2ccc(Nc3c4ccccc4nc4c(C(=O)N5CCN(CCO)CC5)ccc(Cl)c34)cc2)no1		> 100		> 100		> 100		> 100		> 100		> 100				> 100		> 100	> 100	
COc1ncc(-c2ccc3ncnc(Nc4cccc(Cl)c4)c3c2)cc1NS(=O)(=O)C1CC1							0.519 µM	> 100			0.394	> 100	> 100	> 100	1.58	> 100				
COC(=O)[C@H]1C=C[C@@H](C)n2c(=O)c3cc4ccccc4cc3c(=O)n21		> 100		> 100		> 100		> 100		> 100		> 100		> 100		> 100			> 100	
COc1cc2c(c(OC)c1OC)-c1ncc3cc4c(cc3c1C2)OCO4	18.8	48.3	12.5 µM	74.6	12.8	> 100	24.2 µM	83.8	10.8 µM	> 100					13.4	40.8	46.3 µM	> 100	> 100	26.3
CSc1ccc2c(c1)C(=O)c1c-2n(CCCBr)c(=O)c2cc([N+](=O)[O-])ccc12	2.22	> 100	3.63 µM	> 100	12.1	> 100	> 100 µM	> 100	47.2 µM	> 100	0.356	10.3			0.893	6.95	> 100 µM	> 100	8.46	0.532
